Reference: BindingDB's records for doi:10.1016/j.bmcl.2005.05.131 (Naeja Pharmaceutical, 2005)

Target: T1, Cyclin-dependent kinase 4/G1/S-specific cyclin-D1 [L188C] (Homo sapiens, UniProt P11802)
Test: CDKs Assay

`COc1ccc2cnc(Nc3ccc(N4CCN(C(=O)CN)CC4)cc3)nc2c1C1CCCC1` [2-amino-1-(4-{4-[(8-cyclopentyl-7-methoxyquinazolin-2-yl)amino]phenyl}piperazin-1-yl)ethan-1-one] and `COc1ccc2cnc(Nc3ccc(N4CCN(C(C)=O)CC4)cc3)nc2c1C1CCCC1` [1-(4-{4-[(8-cyclopentyl-7-methoxyquinazolin-2-yl)amino]phenyl}piperazin-1-yl)ethan-1-one] are the same in IC50: 2 nM for the first, 2 nM for the second.

Going from `COc1ccc2cnc(Nc3ccc(N4CCCC4)cc3)nc2c1C1CCCC1` [8-cyclopentyl-7-methoxy-N-[4-(pyrrolidin-1-yl)phenyl]quinazolin-2-amine] to `COc1ccc2cnc(Nc3ccc(N4CCCCC4)cc3)nc2c1C1CCCC1` [8-cyclopentyl-7-methoxy-N-[4-(piperidin-1-yl)phenyl]quinazolin-2-amine], the IC50 falls from 1750 nM to 11 nM (160-fold).

Going from `CC(C)c1c(O)ccc2cnc(Nc3ccccc3)nc12` [2-(phenylamino)-8-(propan-2-yl)quinazolin-7-ol] to `COc1ccc2cnc(Nc3ccc(N4CCN(C(=O)CN)CC4)cc3)nc2c1C(C)C` [2-amino-1-[4-(4-{[7-methoxy-8-(propan-2-yl)quinazolin-2-yl]amino}phenyl)piperazin-1-yl]ethan-1-one], the IC50 falls from 325 nM to 10 nM (32-fold). The second is the more potent here.

Going from `COc1ccc2cnc(Nc3ccc(N4CCC(N)C4)cc3)nc2c1C1CCCC1` (configuration not stated) [N-[4-(3-aminopyrrolidin-1-yl)phenyl]-8-cyclopentyl-7-methoxyquinazolin-2-amine] to `COc1ccc2cnc(Nc3ccc(N4CCNCC4)cc3)nc2c1C1CCCC1` [8-cyclopentyl-7-methoxy-N-[4-(piperazin-1-yl)phenyl]quinazolin-2-amine], the IC50 falls from 115 nM to 1 nM (120-fold). The second is the more potent here.

First: COc1ccc2cnc(Nc3ccc(N4CCOCC4)cc3)nc2c1C1CCCC1 [8-cyclopentyl-7-methoxy-N-[4-(morpholin-4-yl)phenyl]quinazolin-2-amine]
Second: COc1ccc2cnc(Nc3ccc(N4CCNCC4)c(F)c3)nc2c1C1CCCC1 [8-cyclopentyl-N-[3-fluoro-4-(piperazin-1-yl)phenyl]-7-methoxyquinazolin-2-amine]
The IC50 of the first is 4.5-fold higher: 18 nM for the first, 4 nM for the second.

Target: T1, Cyclin-dependent kinase 4/G1/S-specific cyclin-D1 [L188C]
Test: not given

Compared with `COc1ccc2cnc(Nc3ccc(N4CCCC4)cc3)nc2c1C(C)C` [7-methoxy-8-(propan-2-yl)-N-[4-(pyrrolidin-1-yl)phenyl]quinazolin-2-amine], `COc1ccc2cnc(Nc3ccc(N4CCCCC4)cc3)nc2c1C(C)C` [7-methoxy-N-[4-(piperidin-1-yl)phenyl]-8-(propan-2-yl)quinazolin-2-amine] is 11-fold lower in IC50: 560 nM for the first, 52 nM for the second. The second is the more potent here.

Compared with `COc1ccc2cnc(Nc3ccc(N4CCN(C(C)=O)CC4)cc3)nc2c1C(C)C` [1-[4-(4-{[7-methoxy-8-(propan-2-yl)quinazolin-2-yl]amino}phenyl)piperazin-1-yl]ethan-1-one], `COc1ccc2cnc(Nc3ccc(N4CCOCC4)cc3)nc2c1C(C)C` [7-methoxy-N-[4-(morpholin-4-yl)phenyl]-8-(propan-2-yl)quinazolin-2-amine] is 2.1-fold higher in IC50: 25 nM for the first, 52 nM for the second.

`COc1ccc2cnc(Nc3ccc(N4CCC(N)C4)cc3)nc2c1C(C)C` (configuration not stated) [N-[4-(3-aminopyrrolidin-1-yl)phenyl]-7-methoxy-8-(propan-2-yl)quinazolin-2-amine] and `COc1ccc2cnc(Nc3ccc(N4CCNCC4)cc3)nc2c1C(C)C` [7-methoxy-N-[4-(piperazin-1-yl)phenyl]-8-(propan-2-yl)quinazolin-2-amine] are within 1.5-fold of each other in IC50: 11 nM for the first, 16 nM for the second.

`COc1ccc2cnc(Nc3ccccc3)nc2c1C(C)C` [7-methoxy-N-phenyl-8-(propan-2-yl)quinazolin-2-amine] showed an IC50 of 125 nM.
